How the values were obtained:
[1] = at 20° C.; cited from earlier work
[2] = Tablet stability tests / stability to humidity; type: physicochemical; conditions: tablets of 98% fructose + 2% leucine, grape versus commercial fructose
[3] = Cracking off, operator observation; type: physicochemical; conditions: 98% fructose + 2% leucine; operator evaluation
Procedure: Cracking off: the cracking off was evaluated directly by the machine operator by observing the tablets both during mould ejection and during the friability test. The tablets must never crack into two mirror-image parts with crack horizontal to the edge, or have visible cracks on the same edge.

[4] = Colour change of tablets after direct compression; type: physicochemical; conditions: 98% fructose + 2% leucine
Procedure: The tablets were prepared by direct compression, after 15 min. mixing of the ingredients, using a Korsch XL 400 compression machine with force of 12 kN and rotation speed of 20,000 tablets/h.

[5] = Compressibility (compression force versus tablet hardness); type: physicochemical; conditions: 98% fructose + 2% leucine, direct compression 12 kN
Procedure: Compressibility: the compressibility was evaluated by measuring the compression force of the compression machine used and the hardness of the tablet. With the same hardness, the formulation that requires less compression force is more compressible.

[6] = Friability, evaluation by the operator; type: physicochemical; conditions: 98% fructose + 2% leucine
Procedure: Friability: friability is measured with the friabilimeter and relative method described in Pharmacopoeia Europea (note: in our specific case, an evaluation by the operator was performed, not a measurement).

[7] = studies on mice followed by clinical trials on humans; cited from earlier work
[8] = listed as crystalline grape fructose

## O=C(CO)[C@@H](O)[C@H](O)[C@H](O)CO [fructose]
[1]
  solubility in water: approx. 80%

## O=C(CO)[C@@H](O)[C@H](O)[C@H](O)CO [grape fructose, fructose]
[2]
  stability: more stable
[2]; [8]
  stability: more resistant to the stability tests
[3]
  Cracking off: does not tend to cracking off
[4]
  colour change of tablet: did not change colour
[4]; [8]
  colour change of tablet: does not change colour
[5]
  Compressibility: compressed better
[5]; [8]
  Compressibility: compresses well
[6]
  Friability: is not friable

## O=C(CO)[C@@H](O)[C@H](O)[C@H](O)CO [commercial fructose, fructose]
[4]
  colour change of tablet: tendency to form yellow patches
[5]
  Compressibility: very poor

## O=C(CO)[C@@H](O)[C@H](O)[C@H](O)CO [fructose extracted from fruit, fructose]
[7]
  insulin secretion: very low

Source: patent US20160050959A1, “TABLET COMPRISING FRUCTOSE” (NATURALIA INGREDIENTS S.R.L., priority 2013, published 2016)
